Measurements published in publication PMC11806944 (Analytical methods : advancing methods and applications, 2025).

Experiments:
[1] = Sorption control wells: abiotic losses to polystyrene 96-well microplate; format: physicochemical
zebrafish embryos [2] = conditions: Tropical 5D wild-type, in vivo, 35 μM; for Chemical uptake amount as share of the total chemical amount added: 5 day
zebrafish embryos [3] = conditions: ~120 hpf; for Incidence of any effect in embryonic zebrafish: 35 μM exposure with daily UV fluorescence measurement
embryonic zebrafish = conditions: cited from earlier work
[4] = estimated; cited from earlier work
[5] = ref Hazard Substances Data Bank (HSDB); cited from earlier work

Row | SMILES | Actual equilibrium media concentration ([1]; control wells, reached after 1 day, ~35 μM nominal) | Total uptake mass per zebrafish embryo, corrected for abiotic losses (zebrafish embryos [2]) | Chemical uptake amount as share of the total chemical amount added (zebrafish embryos [2]) | Incidence of any effect in embryonic zebrafish (zebrafish embryos [3]) | Endpoints observed shared by both chemicals (zebrafish embryos [3]; 35 μM exposure) | Lowest observed adverse effect level (LOAEL) (embryonic zebrafish) | log Kow [4] | Henry's coefficient [5] | Decrease in sorption rate when plates were removed from the shaker table ([1]; t ≤ 1 day vs t ≥ 1 day) | Further endpoints observed (zebrafish embryos [3]; 35 μM exposure)
1 | Oc1ccc2ccccc2c1 [2-hydroxynaphthalene] | approximately 31.5 μM | 2.09 ± 0.89 nmol | approximately 50% | 97% | mortality, yolk sac and pericardial edema, and pectoral fin malformation | 35 µM | 2.7 | 2.7 × 10^−8 atm m^3 mol^−1 |  | 
2 | c1ccc2nc3ccccc3cc2c1 [acridine, Acridine] |  | 0.67 ± 0.26 nmol | ~21% | 100% | mortality, yolk sac and pericardial edema, and pectoral fin malformation | 35 µM | 3.4 | 4 × 10^−7 atm m^3 mol^−1 | 2 factor | Axis and cranial deformities
